Source: the supplement of paper PMC10331698
± gives the standard deviation of the averaged measurements.

Legend:
Assay in all cases: level (log10 ratio to DMSO vehicle control); higher = higher biomarker level / cell amount than vehicle control
Perfluoropinacol = compound: OC(C(F)(F)F)(C(F)(F)F)C(O)(C(F)(F)F)C(F)(F)F [Perfluoropinacol]; conditions: in DMSO
Experimental: (§1)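 BioMAP Diversity Plus panel of 12 human primary cell co-culture systems (3C, 4H, LPS, SAg, BT, BF4T, BE3C, CASM3C, HDF3CGF, KF3CT, MyoF, Mphg). Compounds were added 1 h before stimulation and left for 24 h (MyoF 48 h; BT 72 h for soluble read-outs or 6 d for IgG). Biomarkers were read by ELISA, cytotoxicity by SRB, PBMC viability and proliferation by Alamar Blue. Each well value was divided by the mean of 8 DMSO control wells on the same plate and log10 transformed; duplicate blinded samples were tested at 4 concentrations.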

[1] = compound: OCC(F)(F)C(F)(F)C(F)(F)C(F)(F)C(F)(F)C(F)(F)C(F)(F)C(F)(F)CO [1H,1H,10H,10H-Perfluorodecane-1,10-diol]; conditions: in DMSO
Experimental: as §1

Tetrafluorosuccinic acid = compound: O=C(O)C(F)(F)C(F)(F)C(=O)O [Tetrafluorosuccinic acid]; conditions: in DMSO
Experimental: as §1

[2] = compound: O=C(O)C(F)(F)C(F)(F)C(F)(F)C(F)(F)C(F)(F)C(F)(F)C(F)(F)F [Ammonium perfluorooctanoate]; conditions: in DMSO
Experimental: as §1

[3] = compound: OCCC(F)(F)C(F)(F)C(F)(F)C(F)(F)C(F)(F)C(F)(F)C(F)(F)C(F)(F)F [8:2 Fluorotelomer alcohol]; conditions: 6700 nM; in DMSO
Experimental: as §1

[4] = compound: O=S(=O)(O)CCC(F)(F)C(F)(F)C(F)(F)C(F)(F)F [4:2 Fluorotelomer sulfonic acid]; conditions: in DMSO
Experimental: as §1

[5] = compound: C=CC(=O)OCC(F)(F)C(F)(F)C(F)(F)C(F)(F)C(F)(F)C(F)(F)C(F)(F)C(F)F [1H,1H,9H-Perfluorononyl acrylate]; conditions: in DMSO
Experimental: as §1

Test System | level (log10) (Perfluoropinacol; 6700 nM) | level (log10) (Perfluoropinacol; 20000 nM) | level (log10) ([1]; 6700 nM) | level (log10) ([1]; 20000 nM) | level (log10) ([1]; 60000 nM) | level (log10) (Tetrafluorosuccinic acid; 6700 nM) | level (log10) (Tetrafluorosuccinic acid; 20000 nM) | level (log10) (Tetrafluorosuccinic acid; 60000 nM) | level (log10) ([2]; 6700 nM) | level (log10) ([2]; 20000 nM) | level (log10) ([2]; 60000 nM) | level (log10) [3] | level (log10) ([4]; 6700 nM) | level (log10) ([4]; 20000 nM) | level (log10) ([4]; 60000 nM) | level (log10) ([5]; 6700 nM) | level (log10) ([5]; 20000 nM) | level (log10) ([5]; 60000 nM)
SAg:CD38 | -0.012 ± 0.021 | -0.113 ± 0.023 | -0.0275 ± 0.00071 | -0.04 ± 0.0099 | -0.027 | -0.003 ± 0.027 | 0.001 ± 0.0028 | 0.006 ± 0.027 | -0.011 ± 0.018 | -0.0055 ± 0.0064 | -0.051 ± 0.017 | -0.004 | -0.0135 ± 0.028 | -0.0415 ± 0.019 | -0.0245 ± 0.005 | -0.0395 ± 0.035 | -0.0245 ± 0.0035 | -0.031 ± 0.011
BF4T:Keratin 8/18 | -0.013 ± 0.0099 | -0.036 ± 0.0071 | 0.005 ± 0.028 | 0.027 ± 0.018 | -0.024 | 0.013 ± 0.018 | -0.0115 ± 0.037 | -0.0165 ± 0.03 | 0.009 ± 0.028 | 0.013 ± 0.0057 | 0.017 ± 0.014 | -0.008 ± 0.0028 | 0.0015 ± 0.005 | -0.0195 ± 0.025 | 0.017 ± 0.024 | -0.022 ± 0.013 | -0.007 ± 0.013 | -0.0385 ± 0.037
4H:CD87/uPAR | -0.117 ± 0.022 | -0.226 ± 0.029 | -0.057 ± 0.0099 | -0.083 ± 0.0042 | -0.097 | -0.0355 ± 0.025 | -0.043 ± 0.035 | -0.036 ± 0.089 | 0.0015 ± 0.028 | 0.026 ± 0.0057 | 0.034 ± 0.023 | -0.069 ± 0.025 | 0.0185 ± 0.0078 | 0.003 ± 0.0085 | -0.031 ± 0.024 | -0.024 ± 0.035 | -0.043 ± 0.028 | -0.034 ± 0.061
SAg:CD40 | -0.021 ± 0.016 | -0.146 ± 0.013 | -0.0395 ± 0.0078 | -0.0625 ± 0.028 | -0.081 | 0 ± 0.023 | 0.001 ± 0.0014 | -0.018 ± 0.0071 | -0.008 ± 0.011 | -0.022 | -0.0695 ± 0.011 | 0 ± 0.0042 | -0.006 ± 0.0071 | 0.0015 ± 0.019 | -0.0225 ± 0.039 | -0.027 ± 0.021 | -0.0725 ± 0.023 | -0.133 ± 0.026
